Key:
[1] = test system: barnyardgrass; assay: Test Example 1: foliage treatment, upland pot test; assay type: in vivo, Echinochloa crus-galli L.; conditions: observed 18th to 23rd day, 0 = non-treated, 100 = complete kill
Excerpt: (§1) Upland field soil was put into a 1/170,000 ha pot, and seed of various plants were sown. Then, when the plants reached predetermined leaf stages ((1) barnyardgrass: 1.3 to 2.8 leaf stages, (2) crabgrass: 1.0 to 2.8 leaf stages, (3) green foxtail: 1.3 to 2.6 leaf stages, (4) redroot pigweed: 0.1 to 1.2 leaf stages, (5) prickly sida: 0.1 to 1.2 leaf stages, (6) velvetleaf: 0.1 to 1.2 leaf stages, (7) tall morningglory: 0.1 to 1.5 leaf stages, (8) rice: 1.2 to 2.6 leaf stages, (9) wheat: 1.3 to 2.4 leaf stages, (10) corn, 2.1 to 3.2 leaf stages, (11) soybean: 0.1 to 0.4 leaf stage), a wettable powder or emulsifiable concentrate having the compound of the present invention formulated in accordance with a usual formulation method, was weighed so that the active ingredient would be a predetermined amount, and diluted with water in an amount of 500 L/ha. To the diluted solution, 0.1% (v/v) of agricultural spreader was added. The herbicide thus adjusted was applied by a small size sprayer for foliage treatment. On the 18th to 23rd days after the application of the herbicide, the growth of the respective plants was visually observed, and the herbicidal effects were evaluated by the growth controlling degrees (%) ranging from 0 (equivalent to the non-treated plot) to 100 (complete kill), whereby the results shown in Table 3, were obtained.

[2] = test system: green foxtail; assay: Test Example 1: foliage treatment, upland pot test; assay type: in vivo, Setaria viridis L.; conditions: observed 18th to 23rd day, 0 = non-treated, 100 = complete kill
Excerpt: as §1

[3] = test system: redroot pigweed; assay: Test Example 1: foliage treatment, upland pot test; assay type: in vivo, Amaranthus retroflexus L.; conditions: observed 18th to 23rd day, 0 = non-treated, 100 = complete kill
Excerpt: as §1

[4] = test system: prickly sida; assay: Test Example 1: foliage treatment, upland pot test; assay type: in vivo, Sida spinosa L.; conditions: observed 18th to 23rd day, 0 = non-treated, 100 = complete kill
Excerpt: as §1

[5] = test system: velvetleaf; assay: Test Example 1: foliage treatment, upland pot test; assay type: in vivo, Abutilon theophrasti MEDIC.; conditions: observed 18th to 23rd day, 0 = non-treated, 100 = complete kill
Excerpt: as §1

[6] = test system: rice; assay: Test Example 1: foliage treatment, upland pot test; assay type: in vivo, Oryza sativa L.; conditions: crop, observed 18th to 23rd day, 0 = non-treated, 100 = complete kill
Excerpt: as §1

[7] = test system: corn; assay: Test Example 1: foliage treatment, upland pot test; assay type: in vivo, Zea mays L.; conditions: crop, observed 18th to 23rd day, 0 = non-treated, 100 = complete kill
Excerpt: as §1

[8] = test system: soybean; assay: Test Example 1: foliage treatment, upland pot test; assay type: in vivo, Glycine max Merr.; conditions: crop, observed 18th to 23rd day, 0 = non-treated, 100 = complete kill
Excerpt: as §1

[9] = test system: barnyardgrass; assay: Test Example 2: soil surface treatment, upland pot test; assay type: in vivo, Echinochloa crus-galli L.; conditions: observed 20th to 28th day
Summary of the method: (§2)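 Pots (1/170,000 ha) filled with upland field soil were seeded, then treated on the following day by spraying the soil surface with diluted formulation (1,500 L/ha) at a fixed a.i. dose. Control was rated visually on a 0–100% scale at 20–28 days.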

[10] = test system: crabgrass; assay: as above; assay type: in vivo, Digitaria sanguinalis L.; conditions: observed 20th to 28th day
Summary of the method: as §2

[11] = test system: green foxtail; assay: as above; assay type: in vivo, Setaria viridis L.; conditions: observed 20th to 28th day
Summary of the method: as §2

[12] = test system: redroot pigweed; assay: as above; assay type: in vivo, Amaranthus retroflexus L.; conditions: observed 20th to 28th day
Summary of the method: as §2

[13] = test system: prickly sida; assay: as above; assay type: in vivo, Sida spinosa L.; conditions: observed 20th to 28th day
Summary of the method: as §2

[14] = test system: velvetleaf; assay: as above; assay type: in vivo, Abutilon theophrasti MEDIC.; conditions: observed 20th to 28th day
Summary of the method: as §2

[15] = test system: rice; assay: as above; assay type: in vivo, Oryza sativa L.; conditions: observed 20th to 28th day
Summary of the method: as §2

[16] = test system: corn; assay: as above; assay type: in vivo, Zea mays L.; conditions: observed 20th to 28th day
Summary of the method: as §2

[17] = test system: soybean; assay: as above; assay type: in vivo, Glycine max Merr.; conditions: observed 20th to 28th day
Summary of the method: as §2

[18] = test system: japanese bulrush; assay: Test Example 3: paddy pot test, application under submerged conditions; assay type: in vivo, Scirpus juncoides; conditions: submerged application at 0.5 leaf stage, visually observed 14 days after application, 0 = non-treated, 100 = complete kill
Summary of the method: (§3)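 Paddy soil pots; seeds sown, lightly covered; flooded 0.5–1 cm in greenhouse; wapato tubers planted day 1–2; flood raised to 3–4 cm. Submerged pipette application at 0.5 leaf / primary leaf stage. Visual score day 14, 0–100%.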

[19] = test system: japanese ribbon wapato; assay: as above; assay type: in vivo, Sagittaria pygniaea; conditions: submerged application at primary leaf stage, visually observed 14 days after application, 0 = non-treated, 100 = complete kill
Summary of the method: as §3

[20] = test system: rice (var. Nihonbare); assay: Test Example 3: paddy pot test, transplanted rice; assay type: in vivo, Oryza sativa L.; conditions: applied 4th day after transplantation, visually observed 21st day after application, 0 = non-treated, 100 = complete kill
Summary of the method: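 Visual crop-injury rating (0 = as untreated, 100 = complete kill, %) taken 21 days post-application. Treatment: formulated compound, water-diluted, pipetted into 3–4 cm flood water at a preset active-ingredient dose, 4 days after transplanting 2-leaf Nihonbare rice 3 cm deep in puddled paddy soil.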

[21] = test system: crabgrass; assay: Test Example 1: foliage treatment, upland pot test; assay type: in vivo, Digitaria sanguinalis L.; conditions: active ingredient 500 g/ha, observed 18th to 23rd day, 0 = non-treated, 100 = complete kill
Excerpt: as §1

[22] = test system: barnyardgrass; assay: Test Example 3: paddy pot test, application under submerged conditions; assay type: in vivo, Echinochloa crus-galli L.; conditions: submerged application at 0.5 leaf stage, visually observed 14 days after application, 0 = non-treated, 100 = complete kill
Summary of the method: as §3

Structure (SMILES) | Growth controlling degree (%) Barnyardgrass ([1]; active ingredient 1000 g/ha) [%] | Growth controlling degree (%) Redroot pigweed ([3]; active ingredient 1000 g/ha) [%] | Growth controlling degree (%) Prickly sida ([4]; active ingredient 1000 g/ha) [%] | Growth controlling degree (%) Velvetleaf ([5]; active ingredient 1000 g/ha) [%] | Growth controlling degree (%) Rice ([6]; active ingredient 1000 g/ha) [%] | Growth controlling degree (%) Corn ([7]; active ingredient 1000 g/ha) [%] | Growth controlling degree (%) Soybean ([8]; active ingredient 1000 g/ha) [%] | Growth controlling degree (%) Barnyardgrass ([9]; active ingredient 500 g/ha) [%] | Growth controlling degree (%) Crabgrass ([10]; active ingredient 500 g/ha) [%] | Growth controlling degree (%) Green foxtail ([11]; active ingredient 500 g/ha) [%] | Growth controlling degree (%) Velvetleaf ([14]; active ingredient 500 g/ha) [%] | Growth controlling degree (%) Rice ([15]; active ingredient 500 g/ha) [%] | Growth controlling degree (%) Corn ([16]; active ingredient 500 g/ha) [%] | Growth controlling degree (%) Soyabean ([17]; active ingredient 500 g/ha) [%] | Growth controlling degree (%) Redroot pigweed ([12]; active ingredient 500 g/ha) [%] | Growth controlling degree (%) Prickly sida ([13]; active ingredient 500 g/ha) [%] | Growth controlling degree (%) Barnyardgrass ([22]; active ingredient 250 g/ha) [%] | Growth controlling degree (%) Japanese bulrush ([18]; active ingredient 250 g/ha) [%] | Growth controlling degree (%) Japanese ribbon wapato ([19]; active ingredient 250 g/ha) [%] | Growth controlling degree (%) Rice ([20]; active ingredient 250 g/ha) [%] | also measured
CC(C)C(c1cnccc1C(F)(F)F)N(C)C(=O)Cc1ccccc1Cl (stereo not shown) [I-26] | 90 | 90 | 80 | 80 | 30 | 30 | 50 | – | – | – | – | – | – | – | – | – | – | – | – | – | Growth controlling degree (%) Green foxtail ([2]; active ingredient 1000 g/ha): 70%; Growth controlling degree (%) Barnyardgrass ([9]; active ingredient 250 g/ha): 80%; Growth controlling degree (%) Crabgrass ([10]; active ingredient 250 g/ha): 80%; Growth controlling degree (%) Green foxtail ([11]; active ingredient 250 g/ha): 80%; Growth controlling degree (%) Redroot pigweed ([12]; active ingredient 250 g/ha): 70%; Growth controlling degree (%) Prickly sida ([13]; active ingredient 250 g/ha): 70%; Growth controlling degree (%) Velvetleaf ([14]; active ingredient 250 g/ha): 80%; Growth controlling degree (%) Rice ([15]; active ingredient 250 g/ha): 10%; Growth controlling degree (%) Corn ([16]; active ingredient 250 g/ha): 40%; Growth controlling degree (%) Soyabean ([17]; active ingredient 250 g/ha): 0%; Growth controlling degree (%) Japanese bulrush ([18]; active ingredient 500 g/ha): 90%; Growth controlling degree (%) Japanese ribbon wapato ([19]; active ingredient 500 g/ha): 10%; Growth controlling degree (%) Rice ([20]; active ingredient 500 g/ha): 20%
CC(C)C(c1cnccc1Cl)N(C)C(=O)Cc1cccc(F)c1F (stereo not shown) [I-72] | – | – | – | – | – | – | – | 80 | 70 | 60 | 0 | 0 | 0 | 0 | – | – | – | – | – | – | Growth controlling degree (%) Barnyardgrass ([1]; active ingredient 500 g/ha): 0%; Growth controlling degree (%) Crabgrass [21]: 70%; Growth controlling degree (%) Green foxtail ([2]; active ingredient 500 g/ha): 10%; Growth controlling degree (%) Redroot pigweed ([3]; active ingredient 500 g/ha): 60%; Growth controlling degree (%) Prickly sida ([4]; active ingredient 500 g/ha): 60%; Growth controlling degree (%) Velvetleaf ([5]; active ingredient 500 g/ha): 85%; Growth controlling degree (%) Corn ([7]; active ingredient 500 g/ha): 40%; Growth controlling degree (%) Soybean ([8]; active ingredient 500 g/ha): 20%; Growth controlling degree (%) Barnyardgrass ([22]; active ingredient 125 g/ha): 90%; Growth controlling degree (%) Japanese bulrush ([18]; active ingredient 125 g/ha): 70%; Growth controlling degree (%) Japanese ribbon wapato ([19]; active ingredient 125 g/ha): 50%; Growth controlling degree (%) Rice ([20]; active ingredient 125 g/ha): 0%
CCN(C(=O)Cc1cccc(C(F)(F)F)c1)C(c1cnccc1C(F)(F)F)C(C)C (stereo not shown) [I-75] | 70 | 60 | 80 | 90 | 20 | 10 | 30 | 100 | 100 | 100 | 70 | 0 | 10 | 0 | 40 | 80 | 100 | 70 | 40 | 0 | –
CCN(C(=O)Cc1cccc(C(F)(F)F)c1F)C(c1cnccc1C(F)(F)F)C(C)C (stereo not shown) [I-76] | 80 | 80 | 70 | 90 | 40 | 95 | 70 | 70 | 98 | 100 | 50 | 10 | 0 | 0 | 70 | 100 | 100 | 100 | 60 | 10 | –
CC(C)C(c1cnccc1C(F)(F)F)N(C)C(=O)CC1CCCCC1 (stereo not shown) [I-164] | – | – | – | – | – | – | – | 70 | 98 | 85 | 40 | 60 | 20 | 20 | 70 | 60 | 100 | 98 | 0 | 10 | Growth controlling degree (%) Barnyardgrass ([1]; active ingredient 500 g/ha): 60%; Growth controlling degree (%) Crabgrass [21]: 60%; Growth controlling degree (%) Green foxtail ([2]; active ingredient 500 g/ha): 60%; Growth controlling degree (%) Prickly sida ([4]; active ingredient 500 g/ha): 80%; Growth controlling degree (%) Velvetleaf ([5]; active ingredient 500 g/ha): 85%; Growth controlling degree (%) Rice ([6]; active ingredient 500 g/ha): 50%; Growth controlling degree (%) Corn ([7]; active ingredient 500 g/ha): 50%; Growth controlling degree (%) Soybean ([8]; active ingredient 500 g/ha): 30%
CC(C)C(c1cnccc1C(F)(F)F)N(C)C(=O)COc1ccc(F)cc1 (stereo not shown) [I-241] | – | – | – | – | – | – | – | 100 | 98 | 100 | 70 | 20 | 40 | 20 | 90 | 100 | 100 | 95 | 80 | 0 | Growth controlling degree (%) Barnyardgrass ([1]; active ingredient 500 g/ha): 70%; Growth controlling degree (%) Crabgrass [21]: 95%; Growth controlling degree (%) Green foxtail ([2]; active ingredient 500 g/ha): 70%; Growth controlling degree (%) Prickly sida ([4]; active ingredient 500 g/ha): 80%; Growth controlling degree (%) Velvetleaf ([5]; active ingredient 500 g/ha): 80%; Growth controlling degree (%) Rice ([6]; active ingredient 500 g/ha): 20%; Growth controlling degree (%) Corn ([7]; active ingredient 500 g/ha): 30%; Growth controlling degree (%) Soybean ([8]; active ingredient 500 g/ha): 80%

Reference: patent US20050239656A1, “Pyridine compounds or salts thereof and herbicides containing the same” (priority 2002, published 2005)
